Experimental data taken from ChEMBL document CHEMBL4417631, “Oral peptide inhibitors of interleukin-23 receptor and their use to treat inflammatory bowel diseases” (2017).

Tests used:
[1] = Half life in simulated gastric fluid at 20 uM by LC-MS/MS analysis; format: ADME
Interleukin-23 receptor [2] = molecular target: T1, Interleukin-23 receptor (Homo sapiens, UniProt Q5VWK5); assay: Inhibition of interleukin-23 receptor in human DB cells assessed as reduction in IL-23-stimulated STAT3 phosphorylation incubated for 30 mins by HTRF assay; format: cell-based
T1 sequence (Q5VWK5 whole entry): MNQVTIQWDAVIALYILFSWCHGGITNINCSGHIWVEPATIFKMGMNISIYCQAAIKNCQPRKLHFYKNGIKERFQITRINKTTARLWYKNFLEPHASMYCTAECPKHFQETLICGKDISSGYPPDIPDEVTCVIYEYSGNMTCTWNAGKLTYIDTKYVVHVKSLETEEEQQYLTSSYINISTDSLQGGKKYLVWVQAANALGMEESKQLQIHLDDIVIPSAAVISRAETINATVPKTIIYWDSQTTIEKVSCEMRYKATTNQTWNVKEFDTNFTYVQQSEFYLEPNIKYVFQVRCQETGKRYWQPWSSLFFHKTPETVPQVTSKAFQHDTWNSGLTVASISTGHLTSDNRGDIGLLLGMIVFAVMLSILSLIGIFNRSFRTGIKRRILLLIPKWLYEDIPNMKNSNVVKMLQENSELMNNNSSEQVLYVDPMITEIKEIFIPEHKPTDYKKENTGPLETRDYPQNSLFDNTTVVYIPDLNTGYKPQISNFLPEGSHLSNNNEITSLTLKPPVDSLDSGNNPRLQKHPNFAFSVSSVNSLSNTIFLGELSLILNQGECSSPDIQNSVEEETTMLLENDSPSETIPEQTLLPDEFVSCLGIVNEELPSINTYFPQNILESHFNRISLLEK

[3] = Half life in simulated intestinal fluid at 20 uM by LC-MS/MS analysis; format: ADME
Interleukin-23 receptor [4] = molecular target: T1, Interleukin-23 receptor; assay: Inhibition of interleukin-23 binding to human interleukin-23 receptor incubated for 2 hrs by competitive binding ELISA

| half-life at 20 µM [1] | IC50 (Interleukin-23 receptor [2]) | half-life at 20 µM [3] | IC50 (Interleukin-23 receptor [4]) | SMILES |
| --- | --- | --- | --- | --- |
| > 6 h | < 10 nM | 3 to 6 h | – | COc1ccc(C[C@H](NC(=O)[C@@H](NC(=O)[C@H](CCC(N)=O)NC(=O)[C@H](Cc2c[nH]c3ccccc23)NC(=O)[C@@H](NC(=O)[C@H](CCC(N)=O)NC(=O)[C@@H](NC(C)=O)C(C)(C)S)[C@@H](C)O)C(C)(C)S)C(=O)N[C@@H](Cc2ccc3ccccc3c2)C(=O)NC(C)(C)C(=O)N[C@@H](CCCCNC(C)=O)C(=O)N[C@@H](CC(N)=O)C(=O)N[C@@H](CC(N)=O)C(N)=O)cc1 |
| < 1 h | < 10 nM | < 1 h | – | COc1ccc(C[C@H](NC(=O)[C@@H](NC(=O)[C@H](CCC(N)=O)NC(=O)[C@H](Cc2c[nH]c3ccccc23)NC(=O)[C@@H](NC(=O)[C@H](CC(N)=O)NC(=O)[C@@H](NC(C)=O)C(C)(C)S)[C@@H](C)O)C(C)(C)S)C(=O)N[C@@H](Cc2ccc3ccccc3c2)C(=O)N[C@@H](CCC(C)C)C(=O)N[C@@H](CCCCNC(C)=O)C(=O)N[C@@H](CC(N)=O)C(=O)NCCC(N)=O)cc1 |
| > 6 h | 25 to 100 nM | > 6 h | 100 to 1000 nM | CC(=O)NCCCC[C@H](NC(=O)[C@](C)(CCCCN)NC(=O)[C@H](Cc1c[nH]c2ccccc12)NC(=O)[C@H](Cc1ccc(O)cc1)NC(=O)[C@@H](NC(=O)[C@H](CCC(N)=O)NC(=O)[C@H](Cc1c[nH]c2ccccc12)NC(=O)[C@@H](NC(=O)[C@H](CCC(N)=O)NC(=O)[C@@H](NC(C)=O)C(C)(C)S)[C@@H](C)O)C(C)(C)S)C(=O)N[C@@H](CC(N)=O)C(=O)NCC(N)=O |
| 1 to 2 h | < 10 nM | 1 to 2 h | < 10 nM | CC(=O)NCCCC[C@H](NC(=O)C(C)(C)NC(=O)[C@H](Cc1ccc2ccccc2c1)NC(=O)[C@H](Cc1ccc(OCCN)cc1)NC(=O)[C@@H]1CSCC[C@H](NC(C)=O)C(=O)N[C@@H](CCC(N)=O)C(=O)N[C@@H]([C@@H](C)O)C(=O)N[C@@H](Cc2c[nH]c3ccccc23)C(=O)N[C@@H](CCC(N)=O)C(=O)N1)C(=O)N[C@@H](CC(N)=O)C(=O)NCC(N)=O |
| > 6 h | < 10 nM | > 6 h | – | COc1ccc(C[C@H](NC(=O)[C@@H](NC(=O)[C@H](CCC(N)=O)NC(=O)[C@H](Cc2c[nH]c3ccccc23)NC(=O)[C@@H](NC(=O)[C@H](CC(N)=O)NC(=O)[C@@H](NC(C)=O)C(C)(C)S)[C@@H](C)O)C(C)(C)S)C(=O)N[C@@H](Cc2ccc3ccccc3c2)C(=O)NC(C)(C)C(=O)N[C@@H](CCCCNC(C)=O)C(=O)N[C@@H](CC(N)=O)C(=O)N[C@@H](CCC(N)=O)C(N)=O)cc1 |
| > 6 h | < 10 nM | > 6 h | – | CC(=O)NCCCC[C@H](NC(=O)C(C)(C)NC(=O)[C@H](Cc1ccc2ccccc2c1)NC(=O)[C@H](Cc1ccc(OCCN)cc1)NC(=O)[C@@H](NC(=O)[C@H](CCC(N)=O)NC(=O)[C@H](Cc1c[nH]c2ccccc12)NC(=O)[C@@H](NC(=O)[C@H](CC(N)=O)NC(=O)[C@@H](NC(C)=O)C(C)(C)S)[C@@H](C)O)C(C)(C)S)C(=O)N[C@@H](CC(N)=O)C(=O)N[C@@H](C)C(N)=O |
| < 1 h | < 10 nM | < 1 h | – | CC(=O)NCCCC[C@H](NC(=O)[C@H](CCC(C)C)NC(=O)[C@H](Cc1ccc2ccccc2c1)NC(=O)[C@H](Cc1ccc(OCCN)cc1)NC(=O)[C@@H](NC(=O)[C@H](CCC(N)=O)NC(=O)[C@H](Cc1c[nH]c2ccccc12)NC(=O)[C@@H](NC(=O)[C@H](CC(N)=O)NC(=O)[C@@H](NC(C)=O)C(C)(C)S)[C@@H](C)O)C(C)(C)S)C(=O)N[C@@H](CC(N)=O)C(=O)NCCC(N)=O |
| > 6 h | < 10 nM | > 6 h | – | COc1ccc(C[C@H](NC(=O)[C@@H](NC(=O)[C@H](CCC(N)=O)NC(=O)[C@H](Cc2c[nH]c3ccccc23)NC(=O)[C@@H](NC(=O)[C@H](CC(N)=O)NC(=O)[C@@H](NC(C)=O)C(C)(C)S)[C@@H](C)O)C(C)(C)S)C(=O)N[C@@H](Cc2ccc3ccccc3c2)C(=O)NC(C)(C)C(=O)N[C@@H](CCCCNC(C)=O)C(=O)N[C@@H](CC(N)=O)C(=O)N[C@@H](CC(N)=O)C(N)=O)cc1 |
| > 6 h | < 10 nM | > 6 h | – | CC(=O)NCCCC[C@H](NC(=O)C(C)(C)NC(=O)[C@H](Cc1ccc2ccccc2c1)NC(=O)[C@H](Cc1ccc(OCCN)cc1)NC(=O)[C@@H](NC(=O)[C@H](CCC(N)=O)NC(=O)[C@H](Cc1c[nH]c2ccccc12)NC(=O)[C@@H](NC(=O)[C@@H](NC(=O)[C@@H](NC(C)=O)C(C)(C)S)[C@@H](C)O)[C@@H](C)O)C(C)(C)S)C(=O)N[C@@H](CC(N)=O)C(=O)N[C@@H](CC(N)=O)C(N)=O |
| > 6 h | < 10 nM | > 6 h | – | CC(=O)NCCCC[C@H](NC(=O)C(C)(C)NC(=O)[C@H](Cc1ccc2ccccc2c1)NC(=O)[C@H](Cc1ccc(OCCN)cc1)NC(=O)[C@@H](NC(=O)[C@H](CCC(N)=O)NC(=O)[C@H](Cc1c[nH]c2ccccc12)NC(=O)[C@@H](NC(=O)[C@H](CCC(N)=O)NC(=O)[C@@H](NC(C)=O)C(C)(C)S)[C@@H](C)O)C(C)(C)S)C(=O)N[C@@H](CC(N)=O)C(=O)NCCC(N)=O |
| < 1 h | 10 to 25 nM | < 1 h | – | CC(=O)N[C@H](C(=O)N[C@@H](CCC(N)=O)C(=O)N[C@H](C(=O)N[C@@H](Cc1c[nH]c2ccccc12)C(=O)N[C@@H](CCC(N)=O)C(=O)N[C@H](C(=O)N[C@@H](Cc1ccc(OCCN)cc1)C(=O)N[C@@H](Cc1ccc2ccccc2c1)C(=O)N[C@@H](CCC(C)C)C(=O)N[C@@H](CCC(=O)O)C(=O)N[C@@H](CC(N)=O)C(=O)N[C@@H](C)C(N)=O)C(C)(C)S)[C@@H](C)O)C(C)(C)S |
| < 1 h | < 10 nM | 1 to 2 h | – | CC(=O)N[C@H](C(=O)N[C@@H](CC(N)=O)C(=O)N[C@H](C(=O)N[C@@H](Cc1c[nH]c2ccccc12)C(=O)N[C@@H](CCC(N)=O)C(=O)N[C@H](C(=O)N[C@@H](Cc1ccc(OCCN)cc1)C(=O)N[C@@H](Cc1ccc2ccccc2c1)C(=O)N[C@@H](CCC(C)C)C(=O)N[C@@H](CCC(=O)O)C(=O)N[C@@H](CC(N)=O)C(=O)N[C@@H](C)C(N)=O)C(C)(C)S)[C@@H](C)O)C(C)(C)S |
| 3 to 6 h | – | 2 to 6 h | 25 to 100 nM | COc1ccc(C[C@H](NC(=O)[C@@H]2CSCC[C@H](NC(C)=O)C(=O)N[C@@H](CCC(N)=O)C(=O)N[C@@H]([C@@H](C)O)C(=O)N[C@@H](Cc3c[nH]c4ccccc34)C(=O)N[C@@H](CCC(N)=O)C(=O)N2)C(=O)N[C@@H](Cc2ccc3ccccc3c2)C(=O)N[C@H](C(=O)N[C@@H](CCCCNC(C)=O)C(=O)N[C@@H](CC(N)=O)C(=O)NCC(N)=O)C2CCCCC2)cc1 |
| 3 to 6 h | – | 1 to 2 h | 100 to 1000 nM | CC(=O)NCCCC[C@](C)(NC(=O)[C@H](Cc1ccc2ccccc2c1)NC(=O)[C@H](Cc1ccc(OCCNC(C)=O)cc1)NC(=O)[C@@H](NC(=O)[C@H](CCC(N)=O)NC(=O)[C@H](Cc1c[nH]c2ccccc12)NC(=O)[C@@H](NC(=O)[C@](C)(CCCNC(C)=O)NC(=O)[C@@H](NC(C)=O)C(C)(C)S)[C@@H](C)O)C(C)(C)S)C(=O)N[C@@H](CCC(=O)O)C(=O)N[C@@H](CC(N)=O)C(=O)NCC(N)=O |
| > 6 h | < 10 nM | 2 to 3 h | – | COc1ccc(C[C@H](NC(=O)[C@@H](NC(=O)[C@H](CCC(N)=O)NC(=O)[C@H](Cc2c[nH]c3ccccc23)NC(=O)[C@@H](NC(=O)[C@H](CCC(N)=O)NC(=O)[C@@H](NC(C)=O)C(C)(C)S)[C@@H](C)O)C(C)(C)S)C(=O)N[C@@H](Cc2ccc3ccccc3c2)C(=O)NC(C)(C)C(=O)N[C@@H](CCC(=O)O)C(=O)N[C@@H](CC(N)=O)C(=O)N[C@@H](CC(N)=O)C(N)=O)cc1 |
| > 6 h | < 10 nM | 3 to 6 h | – | CC[C@H](NC(=O)[C@H](CC(N)=O)NC(=O)[C@H](CCCCNC(C)=O)NC(=O)C(C)(C)NC(=O)[C@H](Cc1ccc2ccccc2c1)NC(=O)[C@H](Cc1ccc(OC)cc1)NC(=O)[C@@H](NC(=O)[C@H](CCC(N)=O)NC(=O)[C@H](Cc1c[nH]c2ccccc12)NC(=O)[C@@H](NC(=O)[C@H](CC(N)=O)NC(=O)[C@@H](NC(C)=O)C(C)(C)S)[C@@H](C)O)C(C)(C)S)C(N)=O |
| > 6 h | < 10 nM | 2 to 3 h | – | COc1ccc(C[C@H](NC(=O)[C@@H](NC(=O)[C@H](CCC(N)=O)NC(=O)[C@H](Cc2c[nH]c3ccccc23)NC(=O)[C@@H](NC(=O)[C@H](CC(N)=O)NC(=O)[C@@H](NC(C)=O)C(C)(C)S)[C@@H](C)O)C(C)(C)S)C(=O)N[C@@H](Cc2ccc3ccccc3c2)C(=O)NC(C)(C)C(=O)N[C@@H](CCC(=O)O)C(=O)N[C@@H](CC(N)=O)C(=O)N[C@@H](CC(N)=O)C(N)=O)cc1 |
| > 6 h | < 10 nM | > 6 h | – | CC(=O)NCCCC[C@H](NC(=O)C(C)(C)NC(=O)[C@H](Cc1ccc2ccccc2c1)NC(=O)[C@H](Cc1ccc(OCCN)cc1)NC(=O)[C@@H](NC(=O)[C@H](CCC(N)=O)NC(=O)[C@H](Cc1c[nH]c2ccccc12)NC(=O)[C@@H](NC(=O)[C@H](CC(N)=O)NC(=O)[C@@H](NC(C)=O)C(C)(C)S)[C@@H](C)O)C(C)(C)S)C(=O)N[C@@H](CC(N)=O)C(=O)N[C@@H](CCC(N)=O)C(N)=O |
